In patent US20080125408A1, “PENEM PRODRUG” (Pfizer Inc, priority 2006, published 2008):
Converted amounts (≈) assume the structure as drawn. Like-named read-outs stand apart in the source and are kept apart here.

Tests used:
[1] = Human Intestinal Juice (HIJ) stability studies; format: in vitro ADME; conditions: pooled HIJ from 4 subjects, buffered pH 7.4, 37° C., substrate 1-300 μM
Procedure: In the HIJ experiments, HIJ from 4 individual subjects (1 mL each) was pooled with 1 mL of 600 mM potassium phosphate buffer pH 7.4. Aliquots of 300 μL×6 of the buffered human intestinal juice were incubated at 37° C. following fortification of substrate at concentrations of 300, 100, 30, 10, 3, and 1 μM. Two prodrug compounds could be run at the same time. Samples of 35 μL were taken at 0, 0.5, 1, 2, 10, and 20 minutes and quenched with 70 μL of 80/20 acetonitrile/100 mM ammonium acetate pH 4.5 containing an internal standard (ampicillin, 5 μg/mL). Samples were centrifuged at 3000 g for 10 minutes and the supernatants transferred to injection vials. First order degradation of the prodrug was monitored by LC/MS/MS as described below. The percentage of prodrug remaining versus time at each concentration was fitted to a first order decay function to determine the substrate depletion rate constant or kdep. A linear-log plot of kdep versus concentration could be fitted with the following equation where: [formula] […] In Michaelis-Menton terms, intrinsic clearance CLint represents the ratio of Vmax/Km when [S] is well below the Km. Substrate units for these studies were reported in μM and intrinsic clearance (CIint) in mL/min.

[2] = Liver S9 stability and conversion efficiency to sulopenem; format: in vitro ADME, human; conditions: for half-life at 50 µM: human
Procedure: Oral bioavailability can be predicted variously by factors including one or more of (1) GI tract stability, (2) Caco-2 permeability, (3) efficiency of conversion to sulopenem, and (4) high solubility. Accordingly, the sulopenem prodrugs of the invention were evaluated, as detailed below, for stability in human intestinal juice (HIJ), efficiency of conversion to sulopenem in human liver homogenate, whole blood conversion and solubility as measured in phosphate buffer pH 5.0. Liver S9 was prepared fresh from liver chunks stored at −70° C. for each analysis completed. Approximately 5 g of frozen liver tissue was homogenized to uniformity in 15 mL of ice cold 100 mM potassium phosphate (pH 7.4) buffer. The homogenate was then centrifuged at 9000 g for 20 minutes at 5° C. to isolate the S9 supernatant fraction. Each incubation was run at a 1:10 dilution of the S9 supernatant in 100 mM potassium phosphate (pH 7.4) buffer. Reactions (1 mL) were initiated by the addition of substrate (50 μM final) at 37° C. Stability and conversion efficiency were assessed in 1 mL incubations with heparinized whole blood at 37° C. For both S9 homogenates and whole blood incubations, aliquots (75 μL) were obtained at 0, 0.5, 1, 2, 3, 5, 10, and 20 minutes and quenched in 150 μL of 80/20 acetonitrile/100 mM ammonium acetate pH 4.5 containing an internal standard (ampicillin, 5 μg/mL). Samples were centrifuged at 3000 g for 10 minutes and the supernatants transferred to injection vials. First order degradation of the prodrug was monitored by LC/MS/MS as described below. Conversion to sulopenem was expressed as a percentage of the molar equivalent (50 μM) in a fortified sample. The results of the S9 and whole blood stability and conversion studies are shown in Table 2, where single values represent an average of two duplicate determinations.

[3] = Equilibrium solubility in phosphate buffer pH 5
[4] = Whole blood conversion efficiency to sulopenem; format: in vitro ADME; conditions: heparinized whole blood, 37° C.
Procedure: Stability and conversion efficiency were assessed in 1 mL incubations with heparinized whole blood at 37° C. For both S9 homogenates and whole blood incubations, aliquots (75 μL) were obtained at 0, 0.5, 1, 2, 3, 5, 10, and 20 minutes and quenched in 150 μL of 80/20 acetonitrile/100 mM ammonium acetate pH 4.5 containing an internal standard (ampicillin, 5 μg/mL). Samples were centrifuged at 3000 g for 10 minutes and the supernatants transferred to injection vials. First order degradation of the prodrug was monitored by LC/MS/MS as described below. Conversion to sulopenem was expressed as a percentage of the molar equivalent (50 μM) in a fortified sample. The results of the S9 and whole blood stability and conversion studies are shown in Table 2, where single values represent an average of two duplicate determinations.

Caco-2 cells = assay: Caco-2 permeability studies (A→B assay)
[5] = tested on: Streptococcus pneumoniae penicillin-resistant; assay: MIC90 of sulopenem (in vitro activity); format: cell-based
[6] = tested on: Pseudomonas aeruginosa, Acinetobacter spp., Stenotrophomonas maltophilia, multi-resistant enterococci and methicillin-resistant staphylococci; assay: Antibacterial spectrum: pathogens against which there is no activity; format: cell-based
[7] = tested on: Staphylococcus saprophyticus; assay: MIC90 of sulopenem (in vitro activity); format: cell-based
Alloiococcus otitidis = assay: MIC90 of sulopenem (in vitro activity); format: cell-based; conditions: Alloiococcus otitis
Morganella morganii = assay: MIC90 of sulopenem (in vitro activity); format: cell-based
[8] = tested on: Klebsiella pneumoniae ESBL+; assay: MIC90 of sulopenem (in vitro activity); format: cell-based
[9] = tested on: Viridans Streptococcus group; assay: MIC90 of sulopenem (in vitro activity); format: cell-based
[10] = tested on: Streptococcus bovis (Group D); assay: MIC90 of sulopenem (in vitro activity); format: cell-based; conditions: Streptococcus equinus
Clostridium perfringens = assay: microbe, parasite or virus in culture; format: cell-based
Legionella pneumophila = assay: microbe, parasite or virus in culture; format: cell-based
[11] = tested on: Streptococcus pyogenes (Group A); assay: MIC90 of sulopenem (in vitro activity); format: cell-based
Prevotella spp = assay: MIC90 of sulopenem (in vitro activity); format: cell-based
Procedure: (§1) The in vitro activity of sulopenem (B9) (the parent acid) based on minimum inhibitory concentration (MIC) was evaluated against pathogens involved in […] community and hospital infections, as summarized in Table 1.

Listeria monocytogenes = assay: MIC90 of sulopenem (in vitro activity); format: cell-based
Procedure: as §1

Klebsiella pneumoniae = assay: MIC90 of sulopenem (in vitro activity); format: cell-based
Procedure: as §1

Klebsiella oxytoca = assay: MIC90 of sulopenem (in vitro activity); format: cell-based
Procedure: as §1

[12] = tested on: Streptococcus agalactiae (Group B); assay: MIC90 of sulopenem (in vitro activity); format: cell-based
Procedure: as §1

Salmonella/Shigella = assay: MIC90 of sulopenem (in vitro activity); format: cell-based
Procedure: as §1

[13] = tested on: Staphylococcus aureus oxacillin-S; assay: MIC90 of sulopenem (in vitro activity); format: cell-based
Procedure: as §1

Enterobacter aerogenes = assay: MIC90 of sulopenem (in vitro activity); format: cell-based; conditions: Klebsiella aerogenes
[14] = tested on: Moraxella catarrhalis β-lactamase−; assay: MIC90 of sulopenem (in vitro activity); format: cell-based
Bacteroides fragilis = assay: MIC90 of sulopenem (in vitro activity); format: cell-based
Citrobacter diversus = assay: MIC90 of sulopenem (in vitro activity); format: cell-based; conditions: Citrobacter koseri
[15] = tested on: Haemophilus influenzae β-lactamase−; assay: MIC90 of sulopenem (in vitro activity); format: cell-based
Citrobacter freundii = assay: MIC90 of sulopenem (in vitro activity); format: cell-based
[16] = tested on: Haemophilus influenzae β-lactamase+; assay: MIC90 of sulopenem (in vitro activity); format: cell-based
Proteus mirabilis = assay: MIC90 of sulopenem (in vitro activity); format: cell-based
[17] = tested on: Moraxella catarrhalis β-lactamase+; assay: MIC90 of sulopenem (in vitro activity); format: cell-based
[18] = tested on: Corynebacterium spp (not C. jeikeium); assay: MIC90 of sulopenem (in vitro activity); format: cell-based
[19] = tested on: Streptococcus pneumoniae levofloxacin-resistant; assay: MIC90 of sulopenem (in vitro activity); format: cell-based
[20] = tested on: Streptococcus pneumonia penicillin-intermediate; assay: MIC90 of sulopenem (in vitro activity); format: cell-based; conditions: Streptococcus pneumoniae
[21] = in vivo; cited from earlier work
Enterobacter cloacae = assay: MIC90 of sulopenem (in vitro activity); format: cell-based
[22] = tested on: Streptococcus pneumoniae penicillin-susceptible; assay: MIC90 of sulopenem (in vitro activity); format: cell-based
Escherichia coli = assay: MIC90 of sulopenem (in vitro activity); format: cell-based
Neisseria meningitides = assay: MIC90 of sulopenem (in vitro activity); format: cell-based
[23] = humans, about 500 mg equivalent dose; cited from earlier work
[24] = human, pooled human intestinal juice (HIJ)
[25] = prodrug degradation, liver S9 1:10, 50 μM, pH 7.4, 37° C.
[26] = phosphate buffer, pH 5, aqueous buffer, thermodynamic from solid

Structure (SMILES): CCc1oc(=O)oc1COC(=O)C1=C(S[C@H]2CC[S@@+]([O-])C2)S[C@@H]2[C@@H]([C@@H](C)O)C(=O)N12 [Compound 1, (5-ethyl-2-oxo-1,3-dioxol-4-yl)methyl (5R,6S)-6-[(1R)-1-hydroxyethyl]-7-oxo-3-[[(1R,3S)-tetrahydro-1-oxido-3-thienyl]thio]-4-thia-1-azabicyclo[3.2.0]hept-2-ene-2-carboxylate]
- Km [1, 24]: 120 µM
- HIJ CLint [1]: 0.14 mL/min
- half-life at 50 µM [2, 25]: 3.11 min
- solubility [3, 26]: 1200 µg/mL (≈ 2520 µM)

Structure (SMILES): Cc1oc(=O)oc1COC(=O)C1=C(S[C@H]2CC[S@@+]([O-])C2)S[C@@H]2[C@@H]([C@@H](C)O)C(=O)N12 [Compound C1, (5-Methyl-2-oxo-1,3-dioxol-4-yl)methyl (5R,6S)-6-[(1R)-1-hydroxyethyl]-7-oxo-3-[[(1R,3S)-tetrahydro-1-oxido-3-thienyl]thio]-4-thia-1-azabicyclo[3.2.0]hept-2-ene-2-carboxylate]
- Km [1, 24]: 172 µM
- HIJ CLint [1]: 0.13 mL/min
- half-life at 50 µM [2, 25]: 2.1 min
- solubility [3, 26]: 453 µg/mL (≈ 981 µM)

Structure (SMILES): CCCCc1oc(=O)oc1COC(=O)C1=C(S[C@H]2CC[S@@+]([O-])C2)S[C@@H]2[C@@H]([C@@H](C)O)C(=O)N12 [Compound 3, (5-(3-methylpropyl)-2-oxo-1,3-dioxol-4-yl)methyl (5R,6S)-6-[(1R)-1-hydroxyethyl]-7-oxo-3-[[(1R,3S)-tetrahydro-1-oxido-3-thienyl]thio]-4-thia-1-azabicyclo[3.2.0]hept-2-ene-2-carboxylate]
- HIJ CLint [1]: 0.16 mL/min
- Km [1]: 41 µM
- Whole Blood Conv [4]: 84%
- S9 Conv ([2]; conversion to sulopenem, % of molar equivalent (50 μM), liver S9 1:10, pH 7.4, 37° C.): 67%
- S9 Half-life [2, 25]: 6.09 min
- solubility ([3]; equilibrium, 25 mM phosphate buffer (pH 5), ambient temperature, up to 48 hours): 809 µg/mL (≈ 1610 µM)
- Caco-2 Permeability (Caco-2 cells; Papp A→B, 100 μM prodrug, apical pH 6.5 / basolateral pH 7.4): 5.02 ×10⁻⁶ cm/s
- increase in Caco-2 permeability compared to C1 (Caco-2 cells; relative to comparative compound C1): ~10 fold

Structure (SMILES): C[C@@H](O)[C@H]1C(=O)N2C(C(=O)O)=C(S[C@H]3CC[S@@+]([O-])C3)S[C@H]12 [Sulopenem, (5R,6S)-6-[(1R)-1-hydroxyethyl]-7-oxo-3-[(1R,3S)-tetrahydro-1-oxido-3-thienylthio]-4-thia-1-azabicyclo[3.2.0]hept-2-ene-2-carboxylic acid]
- MIC90 [5]: 1 µg/mL (≈ 2.86 µM)
- antibacterial activity [6]: not active
- MIC90 [7]: 0.5 µg/mL (≈ 1.43 µM)
- MIC90 (Alloiococcus otitidis): 1 µg/mL (≈ 2.86 µM)
- MIC90 (Morganella morganii): 2 µg/mL (≈ 5.72 µM)
- MIC90 [8]: 0.25 µg/mL (≈ 0.715 µM)
- MIC90 [9]: 0.25 µg/mL (≈ 0.715 µM)
- MIC90 [10]: 0.06 µg/mL (≈ 0.172 µM)
- MIC90 (Clostridium perfringens): 0.06 µg/mL (≈ 0.172 µM)
- MIC90 (Legionella pneumophila): 0.06 µg/mL (≈ 0.172 µM)
- MIC90 [11]: 0.03 µg/mL (≈ 0.0858 µM)
- MIC90 (Prevotella spp): 0.125 µg/mL (≈ 0.358 µM)
- MIC90 (Listeria monocytogenes): 0.125 µg/mL (≈ 0.358 µM)
- MIC90 (Klebsiella pneumoniae): 0.125 µg/mL (≈ 0.358 µM)
- MIC90 (Klebsiella oxytoca): 0.125 µg/mL (≈ 0.358 µM)
- MIC90 [12]: 0.125 µg/mL (≈ 0.358 µM)
- MIC90 (Salmonella/Shigella): 0.125 µg/mL (≈ 0.358 µM)
- MIC90 [13]: 0.125 µg/mL (≈ 0.358 µM)
- MIC90 (Enterobacter aerogenes): 0.5 µg/mL (≈ 1.43 µM)
- MIC90 [14]: 0.03 µg/mL (≈ 0.0858 µM)
- MIC90 (Bacteroides fragilis): 0.5 µg/mL (≈ 1.43 µM)
- MIC90 (Citrobacter diversus): 0.06 µg/mL (≈ 0.172 µM)
- MIC90 [15]: 0.25 µg/mL (≈ 0.715 µM)
- MIC90 (Citrobacter freundii): 0.25 µg/mL (≈ 0.715 µM)
- MIC90 [16]: 0.5 µg/mL (≈ 1.43 µM)
- MIC90 (Proteus mirabilis): 0.5 µg/mL (≈ 1.43 µM)
- MIC90 [17]: 0.125 µg/mL (≈ 0.358 µM)
- MIC90 [18]: 2 µg/mL (≈ 5.72 µM)
- MIC90 [19]: 0.5 µg/mL (≈ 1.43 µM)
- MIC90 [20]: 0.25 µg/mL (≈ 0.715 µM)
- oral bioavailability [21]: not appreciably orally bioavailable
- MIC90 (Enterobacter cloacae): 1 µg/mL (≈ 2.86 µM)
- MIC90 [22]: 0.03 µg/mL (≈ 0.0858 µM)
- MIC90 (Escherichia coli): 0.06 µg/mL (≈ 0.172 µM)
- MIC90 (Neisseria meningitides): 0.06 µg/mL (≈ 0.172 µM)

Structure (SMILES): CC(O)C1C(=O)N2C(C(=O)OCOC(=O)C(C)(C)C)=C(SC3CC[S+]([O-])C3)SC12 (centres unmarked) [POM ester]
- oral bioavailability [23]: less than optimal oral bioavailability

Structure (SMILES): CCCc1oc(=O)oc1COC(=O)C1=C(S[C@H]2CC[S@@+]([O-])C2)S[C@@H]2[C@@H]([C@@H](C)O)C(=O)N12 [Compound 2, (5-propyl-2-oxo-1,3-dioxol-4-yl)methyl (5R,6S)-6-[(1R)-1-hydroxyethyl]-7-oxo-3-[[(1R,3S)-tetrahydro-1-oxido-3-thienyl]thio]-4-thia-1-azabicyclo[3.2.0]hept-2-ene-2-carboxylate]
- Km [1, 24]: 22 µM
- HIJ CLint [1]: 0.16 mL/min
- half-life at 50 µM [2, 25]: 3.62 min
- solubility [3, 26]: 507 µg/mL (≈ 1040 µM)
